Experimental findings from PMC6941823, “A dispensable paralog of succinate dehydrogenase subunit C mediates standing resistance towards a subclass of SDHI fungicides in Zymoseptoria tritici” (PLoS Pathogens, 2019) are described below.

Chain of C_A84I-SQR (SDHC_A84I), IPO323_Flu21 mitochondria (F9XH52 44-187, stated change not applied): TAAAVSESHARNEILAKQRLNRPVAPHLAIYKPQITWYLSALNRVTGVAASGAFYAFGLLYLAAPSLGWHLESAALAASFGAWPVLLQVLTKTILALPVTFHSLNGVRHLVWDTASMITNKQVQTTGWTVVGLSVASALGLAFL
Chain of C_A84I-SQR (SDHC_A84I), IPO323_Flu21 mitochondria (O42772 19-297, stated change not applied): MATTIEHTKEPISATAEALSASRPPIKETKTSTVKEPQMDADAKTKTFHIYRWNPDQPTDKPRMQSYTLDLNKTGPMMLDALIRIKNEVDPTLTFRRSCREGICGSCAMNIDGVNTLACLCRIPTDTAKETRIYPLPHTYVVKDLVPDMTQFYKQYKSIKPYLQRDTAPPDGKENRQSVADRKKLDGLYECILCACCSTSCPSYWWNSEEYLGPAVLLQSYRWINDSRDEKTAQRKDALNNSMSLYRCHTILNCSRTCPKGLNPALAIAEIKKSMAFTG
Chain of C_A84I-SQR (SDHC_A84I), IPO323_Flu21 mitochondria (F9X9V6 whole entry, stated change not applied): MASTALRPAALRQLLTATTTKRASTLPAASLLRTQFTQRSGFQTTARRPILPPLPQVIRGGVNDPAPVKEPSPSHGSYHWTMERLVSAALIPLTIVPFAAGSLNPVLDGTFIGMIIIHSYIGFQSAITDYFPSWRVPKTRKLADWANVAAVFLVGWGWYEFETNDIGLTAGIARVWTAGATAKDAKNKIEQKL
Chain of C_A84I-SQR (SDHC_A84I), IPO323_Flu21 mitochondria (F9WWR1 29-643 partner): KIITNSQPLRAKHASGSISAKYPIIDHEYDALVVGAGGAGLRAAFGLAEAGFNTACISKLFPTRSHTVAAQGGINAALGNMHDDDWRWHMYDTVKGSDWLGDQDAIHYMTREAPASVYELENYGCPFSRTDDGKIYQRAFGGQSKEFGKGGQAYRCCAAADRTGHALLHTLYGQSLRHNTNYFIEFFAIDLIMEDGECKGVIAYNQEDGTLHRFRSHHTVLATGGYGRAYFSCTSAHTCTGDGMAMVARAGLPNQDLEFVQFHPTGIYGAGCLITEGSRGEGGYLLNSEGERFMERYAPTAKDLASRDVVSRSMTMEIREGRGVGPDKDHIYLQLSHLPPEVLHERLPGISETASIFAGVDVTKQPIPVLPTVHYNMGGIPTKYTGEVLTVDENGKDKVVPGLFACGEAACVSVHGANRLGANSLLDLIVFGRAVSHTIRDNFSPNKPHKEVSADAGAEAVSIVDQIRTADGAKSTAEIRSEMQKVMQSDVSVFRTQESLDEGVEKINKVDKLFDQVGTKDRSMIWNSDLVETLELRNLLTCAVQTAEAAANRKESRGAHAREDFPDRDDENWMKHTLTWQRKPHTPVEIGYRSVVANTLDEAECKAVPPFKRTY

In one test the test system is Zymoseptoria tritici field and genetically modified strains. Description: Liquid culture assay for fungicide sensitivity determination. Format: cell-based. Conditions: strain KO_SDHC1_T1; liquid culture sensitivity; read-out: EC50 (nM) Mean. The protocol:
Sensitivity towards commercial fungicides was determined for a set of 99 SHA-SDHI-naïve Z. tritici field isolates sampled in Europe between 2006 and 2009. The EC50 of these isolates was determined in liquid growth assays and the data obtained compared for each possible pair of SDHI fungicides (cross-resistance (XR) plots, Fig 1). […] Comparative succinate-quinone reductase (SQR) enzyme inhibition tests were performed with mitochondria extracted from a panel of SHA-SDHIs tolerant and sensitive isolates.
In order to characterize in more depth the mechanisms driving sensitivity differences across the isolates, a subset of eight isolates carrying the ZtSDHC3 gene was analyzed for their sensitivity to SDHIs, alt-SDHC expression and splicing patterns. Liquid culture growth sensitivity tests were performed to determine EC50s for this set of isolates towards a wide range of commercial and research SDHIs (S5 Table).
Pre-culture of the inoculum and fungicide sensitivity tests were performed following previously described procedures. Different ranges of inhibitor concentrations were used for population monitoring and for the detailed phenotyping of a selected set of individual field isolates and genetically modified strains. For fungicide sensitivity monitoring of European field populations, final inhibitors concentrations were between 100 mg.L^-1 and 0.0001 mg.L^-1 with uniform 10x dilution steps (7 inhibitor concentrations + DMSO control). For refined sensitivity analysis of a smaller panel of isolates final inhibitor concentrations ranged between 0.5 mM and 0.47 nM with uniform 4x dilution factor steps (11 inhibitor concentrations+ DMSO control).
With `Cn1cc(C(=O)Nc2cccc3c2[C@@H]2CC[C@H]3C2=C(Cl)Cl)c(C(F)F)n1` (racemic) [Benzovindiflupyr], the EC50 (in general, the midpoint of the concentration-response curve) amounted to 59 nM.

Staying with this test, now noted: strain KO_SDHC1_T3; liquid culture sensitivity; read-out: EC50 (nM) Mean.
`Cn1cc(C(=O)Nc2cccc3c2[C@@H]2CC[C@H]3C2=C(Cl)Cl)c(C(F)F)n1` (racemic) [Benzovindiflupyr]: the EC50 came out at 40 nM.

The test is the same for the next values; noted with them: strain KO_SDHC3_T4; liquid culture sensitivity; read-out: EC50 (nM) Mean.
With `Cn1cc(C(=O)Nc2cccc3c2[C@@H]2CC[C@H]3C2=C(Cl)Cl)c(C(F)F)n1` (racemic) [Benzovindiflupyr], the EC50 came out at 93 nM.

The same test, now with this note: strain KO_SDHC3_T13; liquid culture sensitivity; read-out: EC50 (nM) Mean.
For `Cn1cc(C(=O)Nc2cccc3c2[C@@H]2CC[C@H]3C2=C(Cl)Cl)c(C(F)F)n1` (racemic) [Benzovindiflupyr], the EC50 came to 90 nM.

Staying with this test, now noted: strain pTet::SDHC3_I78A_T1; liquid culture sensitivity; read-out: EC50 (nM) Mean.
For `Cn1cc(C(=O)Nc2cccc3c2[C@@H]2CC[C@H]3C2=C(Cl)Cl)c(C(F)F)n1` (racemic) [Benzovindiflupyr], the EC50 is 28 nM.

Staying with this test, now noted: strain pTet::SDHC3_I78A_T5; liquid culture sensitivity; read-out: EC50 (nM) Mean.
Take `Cn1cc(C(=O)Nc2cccc3c2[C@@H]2CC[C@H]3C2=C(Cl)Cl)c(C(F)F)n1` (racemic) [Benzovindiflupyr]: the EC50 was found to be 87 nM.

The test is the same for the next values; noted with them: strain pTet::SDHC3_I78A_T15; liquid culture sensitivity; read-out: EC50 (nM) Mean.
For the compound `Cn1cc(C(=O)Nc2cccc3c2[C@@H]2CC[C@H]3C2=C(Cl)Cl)c(C(F)F)n1` (racemic) [Benzovindiflupyr], the EC50 worked out at 47 nM.

Staying with this test, now noted: strain pTet::SDHC3_I78A_T35; liquid culture sensitivity; read-out: EC50 (nM) Mean.
With `Cn1cc(C(=O)Nc2cccc3c2[C@@H]2CC[C@H]3C2=C(Cl)Cl)c(C(F)F)n1` (racemic) [Benzovindiflupyr], the EC50 came to 20 nM.

Staying with this test, now noted: strain pTet::SDHC3_T1; liquid culture sensitivity; read-out: EC50 (nM) Mean.
On to `Cn1cc(C(=O)Nc2cccc3c2[C@@H]2CC[C@H]3C2=C(Cl)Cl)c(C(F)F)n1` (racemic) [Benzovindiflupyr], for which the EC50 was determined as 40 nM.

Still in this test, the particulars now being: strain pTet::SDHC3_T2; liquid culture sensitivity; read-out: EC50 (nM) Mean.
As to `Cn1cc(C(=O)Nc2cccc3c2[C@@H]2CC[C@H]3C2=C(Cl)Cl)c(C(F)F)n1` (racemic) [Benzovindiflupyr], the EC50 was 44 nM.

The test is the same for the next values; noted with them: strain pTet::SDHC3_T3; liquid culture sensitivity; read-out: EC50 (nM) Mean.
Consider `Cn1cc(C(=O)Nc2cccc3c2[C@@H]2CC[C@H]3C2=C(Cl)Cl)c(C(F)F)n1` (racemic) [Benzovindiflupyr], for which the EC50 was 30 nM.

The same test, now with this note: strain pTet::SDHC3_T7; liquid culture sensitivity; read-out: EC50 (nM) Mean.
On to `Cn1cc(C(=O)Nc2cccc3c2[C@@H]2CC[C@H]3C2=C(Cl)Cl)c(C(F)F)n1` (racemic) [Benzovindiflupyr], for which the EC50 was determined as 50 nM.

For another test, the target named is SQR (SDHC / altC) of IPO323 pTet::SDHC3 transformant, repressed (Zymoseptoria tritici, UniProt A0A1X7RQW2+F9X9V6+F9XH52+O42772). The test can be described thus: Succinate-quinone (SQR) SDHI sensitivity assay on purified mitochondria, IPO323 pTet::SDHC3 repressed. Type of test: biochemical. Conditions: IC50 ratio compared to IPO323 values. The protocol: (§1) Succinate-ubiquinone oxidoreductase (SQR) inhibition assays were performed on mitochondrial extracts from a panel of strains that were (i) either carrying a unique C-subunit encoding gene (ZtSDHC1, ZtSDHC1_A84I or Zt-SDHC3), or (ii) carrying two C-subunit encoding genes ZtSDHC1 and ZtSDHC3 (Table 1).
Chain of SQR (SDHC / altC) of IPO323 pTet::SDHC3 transformant, repressed (F9XH52 44-187): as the sequence (F9XH52 44-187, stated change not applied) above
Chain of SQR (SDHC / altC) of IPO323 pTet::SDHC3 transformant, repressed (O42772 20-297): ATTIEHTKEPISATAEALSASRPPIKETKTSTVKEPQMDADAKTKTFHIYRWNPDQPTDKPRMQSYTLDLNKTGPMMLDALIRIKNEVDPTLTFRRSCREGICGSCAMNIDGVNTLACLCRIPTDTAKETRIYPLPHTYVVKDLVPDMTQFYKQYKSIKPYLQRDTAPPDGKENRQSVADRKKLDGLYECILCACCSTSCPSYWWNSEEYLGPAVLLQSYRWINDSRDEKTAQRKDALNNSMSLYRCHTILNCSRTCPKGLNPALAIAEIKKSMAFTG
Chain of SQR (SDHC / altC) of IPO323 pTet::SDHC3 transformant, repressed (F9X9V6 1-193): as the sequence (F9X9V6 whole entry, stated change not applied) above
Chain of SQR (SDHC / altC) of IPO323 pTet::SDHC3 transformant, repressed (A0A1X7RQW2 36-181): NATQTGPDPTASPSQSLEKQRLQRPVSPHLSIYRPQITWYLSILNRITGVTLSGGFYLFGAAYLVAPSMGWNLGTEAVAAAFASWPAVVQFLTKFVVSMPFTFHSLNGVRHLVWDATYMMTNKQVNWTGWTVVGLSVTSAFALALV
Chain of SQR (SDHC / altC) of IPO323 pTet::SDHC3 transformant, repressed (F9WWR1 41-643 partner): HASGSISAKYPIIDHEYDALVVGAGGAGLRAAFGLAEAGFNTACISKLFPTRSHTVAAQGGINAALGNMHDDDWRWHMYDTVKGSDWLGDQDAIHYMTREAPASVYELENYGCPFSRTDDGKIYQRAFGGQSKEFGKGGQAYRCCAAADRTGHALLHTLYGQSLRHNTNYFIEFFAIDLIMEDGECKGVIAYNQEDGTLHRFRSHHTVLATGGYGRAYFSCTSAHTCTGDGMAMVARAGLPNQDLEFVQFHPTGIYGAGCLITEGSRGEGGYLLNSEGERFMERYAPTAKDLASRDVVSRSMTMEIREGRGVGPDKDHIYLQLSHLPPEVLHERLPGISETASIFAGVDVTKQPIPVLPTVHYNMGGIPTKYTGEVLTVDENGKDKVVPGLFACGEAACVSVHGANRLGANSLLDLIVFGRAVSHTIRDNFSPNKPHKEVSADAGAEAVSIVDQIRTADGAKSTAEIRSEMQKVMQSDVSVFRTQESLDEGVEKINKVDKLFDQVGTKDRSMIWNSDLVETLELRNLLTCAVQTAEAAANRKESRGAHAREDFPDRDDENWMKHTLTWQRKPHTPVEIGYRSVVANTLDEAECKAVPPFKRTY
Biomass production, mitochondrial extraction and purification were performed as described in [14]. Succinate: ubiquinone/DCPIP sensitivity tests were performed as described in [14] with minor modification.
For `Cn1cc(C(=O)Nc2cccc3c2[C@@H]2CC[C@H]3C2=C(Cl)Cl)c(C(F)F)n1` (racemic) [Benzovindiflupyr], the “RF (resistance factor), pTet Repressed (SDHC / altC)” value worked out at 0.8.

The test is the same for the next values; noted with them: IPO323 pTet::SDHC3 transformant grown in presence of 30 mg.L^-1 doxycycline; mean of three ± SD.
`Cn1cc(C(=O)Nc2cccc3c2[C@@H]2CC[C@H]3C2=C(Cl)Cl)c(C(F)F)n1` (racemic) [Benzovindiflupyr]: the IC50 (usually the point on the concentration scale where inhibition reaches its midpoint) stood at 0.5 ± 0.03 nM.

The target of the next test is C_A84I-SQR (SDHC_A84I), IPO323_Flu21 mitochondria (Zymoseptoria tritici, UniProt F9X9V6+F9XH52+O42772, A84I). Description: Succinate-quinone (SQR) SDHI sensitivity assay on purified mitochondria, IPO323_Flu21. Type of test: biochemical. Particulars: IC50 ratio compared to IPO323 values. On the procedure:
as §1
(§2) Biomass production, mitochondrial extraction and purification were performed as described in [14]. Succinate: ubiquinone/DCPIP sensitivity tests were performed as described in [14] with minor modification. The different mitochondrial suspensions were adjusted to similar initial velocity (1 OD595nm hour^-1) and inhibitor concentrations ranged between 0.047nM and 50μM with uniform 4x dilution steps (11 concentrations + DMSO control). Calculated absorbance slopes (OD/min) were used for IC50 calculations using GraphPad Prism 6.07 software non-linear curve fitting against log inhibitor concentrations.
Take `Cn1cc(C(=O)Nc2cccc3c2[C@@H]2CC[C@H]3C2=C(Cl)Cl)c(C(F)F)n1` (racemic) [Benzovindiflupyr]: the “RF (resistance factor), IPO323_Flu21 (SDHC_A84I)” value is 1.4.

Staying with this test, now noted: mitochondria of UV mutant IPO323_Flu21; mean of three ± SD.
`Cn1cc(C(=O)Nc2cccc3c2[C@@H]2CC[C@H]3C2=C(Cl)Cl)c(C(F)F)n1` (racemic) [Benzovindiflupyr] registered an IC50 of 1 ± 0.2 nM.

The target of the next test is SQR (SDHC) of D024 SDHC3 KO mitochondria (Zymoseptoria tritici, UniProt F9X9V6+F9XH52+O42772). Description: Succinate-quinone (SQR) SDHI sensitivity assay on purified mitochondria, 06STD024 SDHC3 KO. Type of test: biochemical. Conditions: IC50 ratio compared to IPO323 values. The protocol: as §1, §2
Chain of SQR (SDHC) of D024 SDHC3 KO mitochondria (F9XH52 44-187): as the sequence (F9XH52 44-187, stated change not applied) above
Chain of SQR (SDHC) of D024 SDHC3 KO mitochondria (O42772 19-297): as the sequence (O42772 19-297, stated change not applied) above
Chain of SQR (SDHC) of D024 SDHC3 KO mitochondria (F9X9V6 1-193): as the sequence (F9X9V6 whole entry, stated change not applied) above
Chain of SQR (SDHC) of D024 SDHC3 KO mitochondria (F9WWR1 29-643 partner): as the sequence (F9WWR1 29-643 partner) above
With `Cn1cc(C(=O)Nc2cccc3c2[C@@H]2CC[C@H]3C2=C(Cl)Cl)c(C(F)F)n1` (racemic) [Benzovindiflupyr], the “RF (resistance factor), D024 SDHC3 KO (SDHC)” value stood at 0.8.

The same test, now with this note: mitochondria of 06STD024 ZtSDHC3 deletion mutant; mean of three ± SD.
Take `Cn1cc(C(=O)Nc2cccc3c2[C@@H]2CC[C@H]3C2=C(Cl)Cl)c(C(F)F)n1` (racemic) [Benzovindiflupyr]: it took 0.6 ± 0.11 nM to reach half-maximal inhibition (IC50).
